For orientation: EC50 means the midpoint of the concentration-response curve.

In the assay the target is human NAMPT (Homo sapiens (Human), UniProt P43490). Briefly: NMN fluorescence biochemical assay (human recombinant NAMPT enzyme assay). The essentials:
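NMN formed was detected by fluorescence (Ex/Em 355/460 nm) after acetophenone, KOH and formic acid derivatization. The cell-free reaction ran 60 min at ambient temperature with 6 nM human NAMPT, 150 μM nicotinamide, 20 μM PRPP, 2.5 mM ATP, pH 7.2 HEPES, and compound dose responses.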

Chain of human NAMPT (P43490 whole entry): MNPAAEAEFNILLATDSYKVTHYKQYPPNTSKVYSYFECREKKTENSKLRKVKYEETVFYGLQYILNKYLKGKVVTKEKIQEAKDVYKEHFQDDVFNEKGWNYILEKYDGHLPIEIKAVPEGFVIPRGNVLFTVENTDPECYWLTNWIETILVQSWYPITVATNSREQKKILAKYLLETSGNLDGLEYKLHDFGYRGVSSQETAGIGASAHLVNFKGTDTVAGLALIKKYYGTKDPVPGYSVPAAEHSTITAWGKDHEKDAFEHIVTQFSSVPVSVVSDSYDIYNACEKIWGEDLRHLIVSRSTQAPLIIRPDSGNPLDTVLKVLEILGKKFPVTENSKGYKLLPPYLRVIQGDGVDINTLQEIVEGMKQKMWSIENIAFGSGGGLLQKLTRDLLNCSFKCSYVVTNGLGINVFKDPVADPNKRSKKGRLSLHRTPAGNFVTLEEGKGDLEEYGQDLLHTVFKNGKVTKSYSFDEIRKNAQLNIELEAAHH

As for `CC1(C(=O)NCc2ccc(NC(=O)OCc3ccc(Cl)cc3)cc2)COC1` [Compound 179, (4-chlorophenyl)methyl N-(4-{[(3-methyloxetan-3-yl)formamido]methyl}phenyl)carbamate], the “AC1.4 Human” value is 1.50 µM and the half-maximal effective concentration (EC50) is 22.4 µM.
As to `O=C(Nc1ccc(CN2CC3CC3C2=O)cc1)OCc1ccc(Cl)cc1` (stereo not shown) [Compound 180, (4-chlorophenyl)methyl N-[4-({2-oxo-3-azabicyclo[3.1.0]hexan-3-yl}methyl)phenyl]carbamate], the “AC1.4 Human” value amounted to 1.52 µM and the 50% effective concentration (EC50) was determined as 15.1 µM.
Consider `CC(C)n1nccc1C(=O)N[C@@H](C)c1ccc(NC(=O)OCc2ccc(Cl)cc2)cc1` [Compound 181, (4-chlorophenyl)methyl N-{4-[(1S)-1-[(2-isopropylpyrazol-3-yl)formamido]ethyl]phenyl}carbamate], for which the “AC1.4 Human” value stood at 1.53 µM and the EC50 was 15.6 µM.
Consider `Cc1nc(C)c(C(=O)N(C)Cc2ccc(NC(=O)OCc3ccc(Cl)cc3)cc2)o1` [Compound 182, (4-chlorophenyl)methyl N-(4-{[1-(2,4-dimethyl-1,3-oxazol-5-yl)-N-methylformamido]methyl}phenyl)carbamate], for which the “AC1.4 Human” value amounted to 1.54 µM and the EC50 amounted to 11 µM.
The like results for `CC1(C)CCN1C(=O)Cc1ccc(NC(=O)OCc2ccc(Cl)cc2)cc1` [Compound 183, (4-chlorophenyl)methyl N-{4-[2-(2,2-dimethylazetidin-1-yl)-2-oxoethyl]phenyl}carbamate] were, in that order, 1.57 µM and 15.2 µM.
The like results for `COC1CCN(C(=O)NCc2ccc(NC(=O)OCc3ccc(Cl)cc3)cc2)CC1` [Compound 184, (4-chlorophenyl)methyl N-{4-[(4-methoxypiperidine-1-carbonylamino)methyl]phenyl}carbamate] were, in that order, 1.58 µM and 14.9 µM.
Consider `O=C(Nc1ccc(CNC(=O)c2ccc(C(F)F)nc2)cc1)OCc1ccc(Cl)cc1` [Compound 185, (4-chlorophenyl)methyl N-[4-({[6-(difluoromethyl)pyridin-3-yl]formamido}methyl)phenyl]carbamate], for which the “AC1.4 Human” value worked out at 1.59 µM and the EC50 turned out to be 2.04 µM.
Consider `Cc1ccc(Cc2ccc(NC(=O)OCc3ccncc3)cc2)cn1` [Compound 186, pyridin-4-ylmethyl (4-((6-methylpyridin-3-yl)methyl)phenyl)carbamate], for which the “AC1.4 Human” value came out at 1.61 µM and the concentration for a half-maximal effect (EC50) was 3.38 µM.
On to `O=C(Nc1ccc(CNC(=O)c2cnco2)cc1)OCc1ccc(Cl)cc1` [Compound 187, (4-chlorophenyl)methyl N-{4-[(1,3-oxazol-5-ylformamido)methyl]phenyl}carbamate], for which the “AC1.4 Human” value stood at 1.62 µM and the 50% effective concentration (EC50) turned out to be 11.2 µM.
Take `Cc1nn(C)c(C(=O)N(C)Cc2ccc(NC(=O)OCc3ccc(Cl)cc3)cc2)c1F` [Compound 188, (4-chlorophenyl)methyl N-(4-{[1-(4-fluoro-2,5-dimethylpyrazol-3-yl)-N-methylformamido]methyl}phenyl)carbamate]: the “AC1.4 Human” value is 1.62 µM and the concentration giving a half-maximal response (EC50) is 6.85 µM.
The like results for `C[C@H](NC(=O)C1(C)COC1)c1ccc(NC(=O)OCc2ccc(Cl)cc2)cc1` [Compound 189, 4-chlorobenzyl (S)-(4-(1-(3-methyloxetane-3-carboxamido)ethyl)phenyl)carbamate] were, in that order, 1.64 µM and 18.6 µM.
For the compound `Cc1noc(C(=O)N(C)Cc2ccc(NC(=O)OCc3ccc(Cl)cc3)cc2)c1C` [Compound 190, (4-chlorophenyl)methyl N-(4-{[1-(3,4-dimethyl-1,2-oxazol-5-yl)-N-methylformamido]methyl}phenyl)carbamate], the “AC1.4 Human” value came to 1.64 µM and the concentration for a half-maximal effect (EC50) is 9 µM.
Turning to `CC(=O)N1CCN(Cc2ccc(NC(=O)OCc3ccc(Cl)cc3)cc2)CC1` [Compound 191, (4-chlorophenyl)methyl N-{4-[(4-acetylpiperazin-1-yl)methyl]phenyl}carbamate], the “AC1.4 Human” value amounted to 1.69 µM and the EC50 was determined as 21.9 µM.
In the case of `Cc1ncccc1C(=O)NCc1ccc(NC(=O)OCc2ccc(Cl)cc2)cc1` [Compound 192, (4-chlorophenyl)methyl N-(4-{[(2-methylpyridin-3-yl)formamido]methyl}phenyl)carbamate], the “AC1.4 Human” value came to 1.70 µM and the EC50 is 6.45 µM.
In the case of `Cn1cc(C(=O)NCc2ccc(NC(=O)OCc3ccc(Cl)cc3)cc2)cn1` [Compound 193, (4-chlorophenyl)methyl N-(4-{[(1-methylpyrazol-4-yl)formamido]methyl}phenyl)carbamate], the “AC1.4 Human” value came to 1.71 µM and the EC50 stood at 12.7 µM.
For the compound `O=C(Nc1ccc(CC(=O)N2CCN(C3COC3)CC2)cc1)OCc1ccc(Cl)cc1` [Compound 194, (4-chlorophenyl)methyl N-(4-{2-[4-(oxetan-3-yl)piperazin-1-yl]-2-oxoethyl}phenyl)carbamate], the “AC1.4 Human” value amounted to 1.73 µM and the half-maximal effective concentration (EC50) amounted to 26.7 µM.
With `COc1cc(C(=O)NCc2ccc(NC(=O)OCc3ccc(Cl)cc3)cc2)cnc1C` [Compound 195, (4-chlorophenyl)methyl N-(4-{[(5-methoxy-6-methylpyridin-3-yl)formamido]methyl}phenyl)carbamate], the “AC1.4 Human” value worked out at 1.73 µM and the EC50 came out at 8.13 µM.
As to `O=C(Nc1ccc(Cc2ccncc2)cc1)OCc1ccc(C(F)F)cc1` [Compound 196, 4-(difluoromethyl)benzyl (4-(pyridin-4-ylmethyl)phenyl)carbamate], the “AC1.4 Human” value came to 1.75 µM and the EC50 came out at 7.22 µM.
The like results for `Cc1n[nH]cc1C(=O)N(C)Cc1ccc(NC(=O)OCc2ccc(Cl)cc2)cc1` [Compound 197, (4-chlorophenyl)methyl N-(4-{[N-methyl-1-(3-methyl-1H-pyrazol-4-yl)formamido]methyl}phenyl)carbamate] were, in that order, 1.75 µM and 11.8 µM.
In the case of `O=C(Nc1ccc(C2CCN(C3COC3)CC2)cc1)OCc1ccc(Cl)cc1` [Compound 198, (4-chlorophenyl)methyl N-{4-[1-(oxetan-3-yl)piperidin-4-yl]phenyl}carbamate], the “AC1.4 Human” value came out at 1.76 µM and the EC50 was found to be 8.59 µM.
`Cc1ccc(NC(=O)Cc2ccc(NC(=O)OCc3ccc(Cl)cc3)cc2)cn1` [Compound 199, (4-chlorophenyl)methyl N-(4-{[(6-methylpyridin-3-yl)carbamoyl]methyl}phenyl)carbamate]: the “AC1.4 Human” value was found to be 1.77 µM and the EC50 turned out to be 5.28 µM.
For `Cc1cc(C(=O)N[C@@H](C)c2ccc(NC(=O)OCc3ccc(Cl)cc3)cc2)on1` [Compound 200, 4-chlorobenzyl (S)-(4-(1-(3-methylisoxazole-5-carboxamido)ethyl)phenyl)carbamate], in that order: 1.78 µM and 2.12 µM.
Turning to `O=C(Nc1ccc(Cc2ccncc2)cc1)OCc1cncs1` [Compound 201, thiazol-5-ylmethyl (4-(pyridin-4-ylmethyl)phenyl)carbamate], the “AC1.4 Human” value came to 1.78 µM and the EC50 is 26.4 µM.
For `O=C(Nc1ccc(CC(=O)N2CCC[C@H]2CO)cc1)OCc1ccc(Cl)cc1` [Compound 202, (4-chlorophenyl)methyl N-(4-{2-[(2S)-2-(hydroxymethyl)pyrrolidin-1-yl]-2-oxoethyl}phenyl)carbamate], the “AC1.4 Human” value came to 1.82 µM and the concentration giving a half-maximal response (EC50) turned out to be 24.5 µM.
For `Cc1nn(C)c(C(=O)NCc2ccc(NC(=O)OCc3ccc(Cl)cc3)cc2)c1F` [Compound 203, (4-chlorophenyl)methyl N-(4-{[(4-fluoro-2,5-dimethylpyrazol-3-yl)formamido]methyl}phenyl)carbamate], the “AC1.4 Human” value is 1.82 µM and the EC50 was determined as 7.14 µM.
The like results for `CN1CC(=O)NC[C@@H]1c1ccc(NC(=O)OCc2ccc(C(F)F)cc2)cc1` [Compound 204, 4-(difluoromethyl)benzyl (S)-(4-(1-methyl-5-oxopiperazin-2-yl)phenyl)carbamate] were, in that order, 1.83 µM and 21.1 µM.
In the case of `Cn1nccc1C(=O)NCc1ccc(NC(=O)OCc2ccc(Cl)cc2)cc1` [Compound 205, (4-chlorophenyl)methyl N-(4-{[(2-methylpyrazol-3-yl)formamido]methyl}phenyl)carbamate], the “AC1.4 Human” value was determined as 1.84 µM and the half-maximal effective concentration (EC50) amounted to 10.1 µM.
Regarding `Cc1n[nH]c(C)c1C(=O)N(C)Cc1ccc(NC(=O)OCc2ccc(Cl)cc2)cc1` [Compound 206, (4-chlorophenyl)methyl N-(4-{[1-(3,5-dimethyl-1H-pyrazol-4-yl)-N-methylformamido]methyl}phenyl)carbamate], the “AC1.4 Human” value is 1.85 µM and the EC50 amounted to 14.7 µM.
For `O=C(Nc1ccc(CNC(=O)c2ncccc2F)cc1)OCc1ccc(Cl)cc1` [Compound 207, (4-chlorophenyl)methyl N-(4-{[(3-fluoropyridin-2-yl)formamido]methyl}phenyl)carbamate], in that order: 1.85 µM and 9.34 µM.
Regarding `CCc1cc(C(=O)NCc2ccc(NC(=O)OCc3ccc(Cl)cc3)cc2)n(C)n1` [Compound 208, (4-chlorophenyl)methyl N-(4-{[(5-ethyl-2-methylpyrazol-3-yl)formamido]methyl}phenyl)carbamate], the “AC1.4 Human” value is 1.87 µM and the 50% effective concentration (EC50) is 17.4 µM.
Consider `Cc1ncoc1C(=O)NCc1ccc(NC(=O)OCc2ccc(Cl)cc2)cc1` [Compound 209, (4-chlorophenyl)methyl N-(4-{[(4-methyl-1,3-oxazol-5-yl)formamido]methyl}phenyl)carbamate], for which the “AC1.4 Human” value came out at 1.88 µM and the EC50 stood at 21.6 µM.
For the compound `C[C@H](NC(=O)c1ccnn1C1CCC1)c1ccc(NC(=O)OCc2ccc(Cl)cc2)cc1` [Compound 210, (4-chlorophenyl)methyl N-{4-[(1S)-1-[(2-cyclobutylpyrazol-3-yl)formamido]ethyl]phenyl}carbamate], the “AC1.4 Human” value was 1.91 µM and the half-maximal effective concentration (EC50) is 3.82 µM.
